Results from patent US20050239719A1, “Methods of using and compositions comprising thalidomide for the treatment and management of pulmonary hypertension” (priority 2004, published 2005).

Columns and labels:
[1] = tested on: patients with PH, WHO functional class III or IV; assay: Expanded Study: 16-week placebo-controlled study in 213 PH patients; type: in vivo, human
Description: On the basis of the results of the above study 2, the clinical study is expanded with additional 213 PH patients for at least 16 weeks. The study is conducted with patients with PH, WHO functional class III or IV. Two hundred thirteen patients are randomized to receive either 200 mg bid or 400 mg bid of thalidomide or placebo in a 1:1:1 ratio. The primary endpoint, a 6-minute walk distance, is evaluated at 16 weeks. The treated patients walk 36.4 meters further at 16 weeks compared to a 7.8 meter reduction in walk distance in the placebo group, for a treatment effect of 44.2 meters. Clinical worsening, defined by death, premature withdrawal from study, hospitalization for worsening of PH or institution of epoprostenol, occur in 37% of placebo-treated patients, compared with 11% of the patients treated with the compound of the invention.

[2] = tested on: patients with PH (NYHA functional class III); assay: Clinical Study 2: 12-week placebo-controlled study in patients with PH; type: in vivo, human
Description: In one embodiment of the invention, thalidomide is administered in a single or divided daily doses in an amount of from about 200 to about 800 mg/day. The compound is administered to patients with PH for 12 weeks, who are subsequently evaluated for a decline in walk distance, dyspnea score, functional class, pulmonary hemodynamic response. The first study enrolls 32 patients with PH. Patients are all in modified New York Heart Association functional class III at the onset of the study. Patents are maximally treated and are stable on conventional therapy, including calcium channel antagonists and diuretics. Two thirds of patients receive 400 mg of thalidomide for four weeks followed by 800 mg of the compound for eight weeks. One third of patients receive placebo. The primary efficacy endpoint is a 6-minute walk distance. Patients receiving the compound of the invention walk an average of 70 meters farther after 12 weeks while placebo patients have a decline in walk distance. In addition, the treated patients have improvements in dyspnea score and functional class compared with placebo patients. Pulmonary hemodynamic measurements reveal decreases in pulmonary arterial pressure and pulmonary vascular resistance, and increase in cardiac output after 12 weeks of the treatment, compared with worsening of pulmonary hemodynamics in placebo patients. All these changes in treated patients are highly significant compared with placebo.

[3] = 12 weeks, compared with placebo patients
[4] = after 12 weeks of treatment, compared with placebo

Question: With `O=C1CCC(N2C(=O)c3ccccc3C2=O)C(=O)N1` (racemic) [thalidomide, 2-(2,6-dioxo-3-piperidinyl)-1H-isoindole-1,3(2H)-dione] as the molecule, how does the “6-minute walk distance, increase” value ([1]; at 16 weeks, 200 mg bid or 400 mg bid) read?
Answer: Its value is 36.4 meters.

Question: What about the “6-minute walk distance, treatment effect versus placebo” value ([1]; at 16 weeks, treated minus placebo (7.8 meter reduction)) of the same molecule?
Answer: The value was 44.2 meters.

Question: What about the “clinical worsening (death, premature withdrawal, hospitalization for worsening of PH or institution of epoprostenol), share of patients” value ([1]; treated patients, 37% in placebo-treated patients) of the same molecule?
Answer: The value was 11%.

Question: And the functional class ([1]; treated versus placebo patients)?
Answer: The functional class was “improved significantly more”.

Question: And the dyspnea score [2, 3]?
Answer: The dyspnea score was “improvements”.

Question: What about the functional class [2, 3] of the same molecule?
Answer: The functional class was “improvements”.

Question: What about the cardiac output [2, 4] of the same molecule?
Answer: The cardiac output was “increase”.

Question: And the pulmonary arterial pressure [2, 4]?
Answer: Its pulmonary arterial pressure is “decreases”.

Question: What about the pulmonary vascular resistance [2, 4] of the same molecule?
Answer: Its pulmonary vascular resistance is “decreases”.

Question: What about the “6-minute walk distance, average increase” value ([2]; after 12 weeks, 400 mg for four weeks then 800 mg for eight weeks, PH patients) of the same molecule?
Answer: Its value is 70 meters.
